Here are results for twelve compounds from US20240400586A1, “HETEROARYL DERIVATIVE PARP INHIBITOR AND USE THEREOF” (HAISCO PHARMACEUTICAL GROUP CO., LTD., priority 2021, published 2024).

Experiment [1] deals with PARP-1 enzyme (Homo sapiens (Human), UniProt P09874). The experiment is described as follows: PARP1 enzyme activity test (BPS Bioscience chemiluminescence kit). The format is biochemical. The text has this: Inhibition %=(1−(RLUsample−RLUmin)/(RLUmax−RLUmin))×100% (formula 1)
Experiment [2] has as its system breast tumor cells MDA-MB-436. Briefly: MDA-MB-436 cell activity test (CellTiter-Glo, 7 days). The note with it: Homo sapiens, MDA-MB-436, 168 h, 7 days incubation; for inhibition at 10 µM: read-out: MDA-MB-436 Max inh. % 10 μM; for IC50: read-out: MDA-MB-436 cell inhibitory activity IC50. The format is cell-based. How it is done:
Breast tumor cells MDA-MB-436 were purchased from ATCC, the culture medium was Leibovitz's L-15+10% FBS, and the cells were cultured in a CO2-free incubator at 37° C. On day 1, the cells in the exponential growth phase were collected, and the cell suspension was adjusted to 4000 cells/135 μL with the culture medium. 135 μL of the cell suspension was added to each well of a 96-well cell culture plate and incubated overnight. On day 2, compounds at different concentrations were added, and the plate was placed in the incubator and incubated for 7 days. After the incubation was completed, according to operation instructions for a CellTiter-Glo kit (Promega, G7573), 75 μL of CTG solution, which was already pre-melted and equilibrated to room temperature, was added to each well, and the mixture was uniformly mixed for 2 min using a microplate shaker. The plate was placed at room temperature for 10 min, and then […] were measured using an Envision2104 plate reader (PerkinElmer). The inhibition rate was calculated using formula (1), where RLUcompound was the readout of the drug treated group, RLUcontrol was the average value of the vehicle control group, and RLUblank was the average value of the cell-free well. The IC50 value was calculated using GraphPad Prism software.
A general note: In ATP-based viability assays light output follows the ATP content of the culture.

Sequence of PARP-1 enzyme (P09874 whole entry): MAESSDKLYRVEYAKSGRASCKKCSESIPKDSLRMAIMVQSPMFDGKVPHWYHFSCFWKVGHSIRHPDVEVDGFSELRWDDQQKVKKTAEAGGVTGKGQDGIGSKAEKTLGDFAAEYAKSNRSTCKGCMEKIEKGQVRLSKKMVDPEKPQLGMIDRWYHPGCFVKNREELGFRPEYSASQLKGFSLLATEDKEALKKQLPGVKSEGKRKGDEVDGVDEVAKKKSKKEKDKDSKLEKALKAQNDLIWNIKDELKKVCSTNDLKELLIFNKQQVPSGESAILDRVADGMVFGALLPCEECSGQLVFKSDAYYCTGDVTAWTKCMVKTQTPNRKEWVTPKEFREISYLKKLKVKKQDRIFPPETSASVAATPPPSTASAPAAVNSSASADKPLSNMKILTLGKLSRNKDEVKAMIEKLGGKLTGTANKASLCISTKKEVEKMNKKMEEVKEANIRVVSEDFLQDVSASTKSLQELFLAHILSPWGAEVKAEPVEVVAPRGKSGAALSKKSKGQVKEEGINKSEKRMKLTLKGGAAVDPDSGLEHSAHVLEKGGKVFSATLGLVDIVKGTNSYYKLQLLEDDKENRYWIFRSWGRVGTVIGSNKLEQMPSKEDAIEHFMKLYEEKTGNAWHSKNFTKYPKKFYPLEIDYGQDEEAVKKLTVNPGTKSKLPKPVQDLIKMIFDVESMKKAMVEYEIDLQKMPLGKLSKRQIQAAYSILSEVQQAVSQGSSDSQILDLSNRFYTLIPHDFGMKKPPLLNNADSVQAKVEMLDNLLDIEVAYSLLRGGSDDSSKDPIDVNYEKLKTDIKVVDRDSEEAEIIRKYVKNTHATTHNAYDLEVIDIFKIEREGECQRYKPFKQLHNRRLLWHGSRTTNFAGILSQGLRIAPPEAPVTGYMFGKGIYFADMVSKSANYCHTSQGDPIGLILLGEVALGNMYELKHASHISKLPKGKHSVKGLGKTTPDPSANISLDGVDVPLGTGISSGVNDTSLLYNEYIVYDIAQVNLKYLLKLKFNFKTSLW

Take `CCc1cc2ncc(CN3CCN(c4ccc5c(c4)CN(C)C5=O)CC3)cc2[nH]c1=O` [Compound 1, 3-ethyl-7-((4-(2-methyl-1-oxoisoindolin-5-yl)piperazin-1-yl)methyl)-1,5-naphthyridin-2 (1H)-one]: in experiment [1], it took 3.66 nM to reach half-maximal inhibition (IC50).

`CCc1cc2ncc(CN3CCN(c4cnc(C(=O)NC)cn4)CC3)cc2[nH]c1=O` [Compound 2, 5-(4-((7-ethyl-6-oxo-5,6-dihydro-1,5-naphthyridin-3-yl)methyl)piperazin-1-yl)-N-methylpyrazine-2-carboxamide] showed an IC50 in experiment [1] of 2.01 nM.

`CCc1cc2ncc(CN3CCN(c4ccc(-c5nnc(C)o5)nc4)CC3)cc2[nH]c1=O` [Compound 3, 3-ethyl-7-((4-(6-(5-methyl-1,3,4-oxadiazol-2-yl)pyridin-3-yl)piperazin-1-yl)methyl)-1,5-naphthyridin-2 (1H)-one] returned an IC50 in experiment [1] of 1.33 nM.

In turn, `CCc1cc2ncc(CN3CCN(c4ccc(NC(C)=O)nc4)CC3)cc2[nH]c1=O` [Compound 7, N-(5-(4-((7-ethyl-6-oxo-5,6-dihydro-1,5-naphthyridin-3-yl)methyl)piperazin-1-yl)pyridin-2-yl)acetamide] displayed an IC50 in experiment [1] of 0.32 nM.

`CCc1cc2ncc(CN3CCN(c4ccc(NC(=O)OC)nc4)CC3)cc2[nH]c1=O` [Compound 8, methyl(5-(4-((7-ethyl-6-oxo-5,6-dihydro-1,5-naphthyridin-3-yl)methyl)piperazin-1-yl)pyridin-2-yl)carbamate]: inhibition in experiment [1] was half-maximal at 0.58 nM (IC50).

`CCc1cc2ncc(CN3CCN(c4cnc(C(=O)NC)cc4F)CC3)cc2[nH]c1=O` [Compound 12, 5-(4-((7-ethyl-6-oxo-5,6-dihydro-1,5-naphthyridin-3-yl)methyl)piperazin-1-yl)-4-fluoro-N-methylpicolinamide] gave an IC50 in experiment [1] of 1.6 nM.

`CCc1cc2ncc(CN3CCN(c4cnc(C(=O)NC5CC5)cc4F)CC3)cc2[nH]c1=O` [Compound 13, N-cyclopropyl-5-(4-((7-ethyl-6-oxo-5,6-dihydro-1,5-naphthyridin-3-yl)methyl)piperazin-1-yl)-4-fluoropicolinamide]: in experiment [1], half-maximal inhibition (IC50) was put at 0.76 nM.

The compound `CCc1cc2ncc(CN3CCN(c4ccc(NC(=O)NC)nc4)CC3)cc2[nH]c1=O` [Compound 14, 1-(5-(4-((7-ethyl-6-oxo-5,6-dihydro-1,5-naphthyridin-3-yl)methyl)piperazin-1-yl)pyridin-2-yl)-3-methylurea] registered an IC50 in experiment [1] of 0.71 nM.

Regarding `CCc1cc2ncc(CN3CCN(c4ccc(NC(=O)[C@H]5C[C@H]5F)nc4)CC3)cc2[nH]c1=O` [Compound 34, (1R,2R)—N-(5-(4-((7-ethyl-6-oxo-5,6-dihydro-1,5-naphthyridin-3-yl)methyl)piperazin-1-yl)pyridin-2-yl)-2-fluorocyclopropane-1-carboxamide], in experiment [2], the inhibition at 10 µM was 81.9% and the IC50 was found to be 16.5 nM.

Consider `CCc1cc2ncc(CN3CCN(c4ccc(NC(=O)[C@@H]5C[C@H]5F)nc4)CC3)cc2[nH]c1=O` [Compound 35, (1S,2R)—N-(5-(4-((7-ethyl-6-oxo-5,6-dihydro-1,5-naphthyridin-3-yl)methyl)piperazin-1-yl)pyridin-2-yl)-2-fluorocyclopropane-1-carboxamide], for which, in experiment [2], the inhibition at 10 µM amounted to 90.4% and the IC50 stood at 9.8 nM.

`CCc1cc2ncc(CN3CCN(c4ccc(C(=O)NCCOC5CC5(F)F)nc4)CC3)cc2[nH]c1=O` (stereo not shown) [Compound 52, N-(2-(2,2-difluorocyclopropoxy)ethyl)-5-(4-((7-ethyl-6-oxo-5,6-dihydro-1,5-naphthyridin-3-yl)methyl)piperazin-1-yl)picolinamide]: in experiment [2], the inhibition at 10 µM was determined as 92.4% and the IC50 turned out to be 3.1 nM.

Consider `CCc1cc2ncc(CN3CCN(c4ccc(C(=O)NCCOC5CC5)nc4)CC3)cc2[nH]c1=O` [Compound 53, N-(2-cyclopropoxyethyl)-5-(4-((7-ethyl-6-oxo-5,6-dihydro-1,5-naphthyridin-3-yl)methyl)piperazin-1-yl)picolinamide], for which, in experiment [2], the inhibition at 10 µM stood at 90.6% and the IC50 is 2.2 nM.

A word on the IC50: it is the concentration that gives 50% inhibition.
